Experimental data taken from a melting point compilation (Tetko et al.; mined from patent text by program, amines drawn as free bases though some values may be those of a salt).

Row | melting point [°C] | Compound
1 | 134 to 135 | CON=C(c1nnco1)c1ccccc1COc1cc(C)ccc1C
2 | 180 to 183 | CN(C)C(=O)Cn1c(-c2ccc(F)cc2)nc2cccnc21
3 | 154 to 155 | CCCc1nnc(Cc2ccc(NC(=O)/C=C/c3cnn(C)c3-c3ccc(F)cc3)cc2)o1
4 | 158 to 159 | COc1ccc(CC(C(=O)O)S(C)(=O)=O)cc1C(=O)NCc1ccc(C(F)(F)F)cc1 (stereo not given)
5 | > 270 | CC1=C([N+](=O)[O-])C(c2cccc(Cl)c2Cl)c2c[nH]nc2N1 (stereo not given)
6 | 203 to 206 | COc1cc(C(=O)O)ccc1Cc1cn(C)c2ccc(NC(=O)NC3CCCC3)cc12
7 | 74 to 75 | CCOC(=O)c1nc2ccccc2nc1C
8 | 156 to 159 | COC(=O)c1c(Cl)cc(Cl)cc1NC(=O)CSc1ccc(NC(=O)c2cccnc2)cc1
9 | 217 to 218 | Cc1ccc(-c2nc(C#N)cc3c4cccc5c4n(c23)CCC5)cc1
10 | > 275 | O=c1ccc(S(=O)(=O)c2cc3c(=O)[nH]ccc3o2)n[nH]1
11 | 63 to 64.5 | CC(C(=O)CO)c1ccc(-c2ccccc2)c(F)c1 (stereo not given)
12 | 115 to 117 | COc1ccc2cc(N)cc(C)c2n1
13 | 65 to 66 | COc1ccccc1C1CC(=O)C(C(C)=O)C(=O)C1 (stereo not given)
14 | > 300 | C[C@@H]1[C@H](NC(=O)C(=O)c2csc(N)n2)C(=O)N1S(=O)(=O)O
15 | 231 to 233 | CC(C)(C)c1cc(Nc2cccc(-c3nnn[nH]3)c2)cc(C(C)(C)C)c1O
16 | 115 to 117 | CC(=O)N1CCc2cc(S(=O)(=O)n3c(CCCC(=O)O)cc4cc(Cl)ccc43)ccc21
17 | > 320 | CCOc1ccc(-c2c(O)c3ccc(Cl)cc3[nH]c2=O)cc1
18 | 124 to 125 | CN(O)C(=O)C=Cc1cccc(Oc2ccccc2)c1
19 | 177 to 178 | c1ccc(C2=NN=C(c3ccccc3)NN2)cc1
20 | 211 to 214 | CCC(=O)N(c1ccc(C#N)cc1)c1c(NC(C)C(C)(C)C)c(=O)c1=O (stereo not given)
21 | 147 | COCCOc1cc(N(C)S(=O)(=O)c2ccccn2)c2[nH]c(C3=N[C@@H](CO)CS3)cc2c1
22 | 181 to 182 | Oc1ccc(-n2c(-c3ccccc3)cc3c2CCCC3)cc1
23 | 135 to 137 | c1cc(Nc2nncc3ccccc23)cc(-n2ccnc2)c1
24 | 346 to 348 | CN(C)Cc1cccc(-c2cc3c(=O)n(NS(C)(=O)=O)c(=O)[nH]c3cc2C(F)(F)F)c1
25 | 110 to 111 | O=[N+]([O-])c1cc(-c2ccncc2)ccc1Cl
26 | 179 to 180 | Fc1cc(F)cc(Cn2c(S)nc3ccccc32)c1
27 | 138 to 140 | Cc1cccc2[nH]c(Cl)nc12

Row | melting point [°C] | Compound
28 | 163 to 167 | CCCCNC(=O)NS(=O)(=O)c1cccc(C(=O)OC)c1I
29 | 151 to 153 | CC(C)(CO)Nc1nc(-c2ccc(Br)cc2)cs1
30 | > 200 | N#Cc1c(N2CCc3ccccc3CC2)nc2n(c1=O)CCN2
31 | 179 to 181 | Nc1sc2c(c1C(=O)c1ccc(Cl)c3ccccc13)CCCC2
32 | 172 to 174 | Cc1nc2c(-c3cccc(N4CCN(CCO)CC4)c3)cnn2c(N)c1-c1ccc(F)c(F)c1
33 | 180 to 183 | COc1ccc(Cl)cc1C(=O)NCCc1ccc(C(C)=CCC(=O)O)cc1
34 | 143 to 144 | Cc1nnc(-c2ccc3occ(-c4ccc(SCF)cc4)c3c2)o1
35 | 308 to 310 | Cc1cc(-c2c(F)cc3c(=O)c(Cc4c(O)cccc4O)cn(C4CC4)c3c2F)cc(C)n1
36 | 61 to 62.5 | O=C(Cc1ccc(F)cc1)c1cccs1
37 | 85 to 87 | COP(=O)(O)CNc1cc(Cl)c(Oc2ccc(O)c3ccccc23)c(Cl)c1
38 | 222 to 223 | CC1(C)CN2C(=O)c3nc[nH]c3N(Cc3ccc(Cl)cc3)C2=N1
39 | 128 to 130 | COC(Cc1ccc(OCCc2nc(-c3ccccc3)oc2C)c2ccccc12)C(=O)O (stereo not given)
40 | 199 to 200 | COc1cccc(Sc2c(O)c3ccc(Cl)cc3[nH]c2=O)c1
41 | 89 to 91 | Nc1cc(N2C(=O)CN(CCCF)C2=O)c(F)cc1Cl
42 | 200 to 202 | NC(=O)c1cc2cc(Cl)ccc2o1
43 | 293 | COC1=C(c2csc(NC(=O)c3cc4ccccc4[nH]3)n2)C=CC(Cl)(OC)C1 (stereo not given)
44 | 198 to 200 | CCCCCCN(C)c1ccc(C=C2SC(=S)N(Cc3nnn[nH]3)C2=O)cc1
45 | 143 to 144 | Nc1cc(Br)ccc1C(=O)NCc1ccc(Br)cc1F
46 | 165 | CCOc1ccc2c(c1)n(C1CCCCC1)c(=O)n2S(=O)(=O)c1ccc(NC(=O)N(CC)CC)cc1OC
47 | 233 to 235 | O=Cc1ccc2oc3ncccc3c(=O)c2c1
48 | 219 to 220 | CCCN(CCC)C1Cc2cc3c(=O)[nH]n(Cc4ccccc4)c(=O)c3cc2C1 (stereo not given)
49 | 90 | CSC1Cc2cc(Cl)ccc2C1=O (stereo not given)
50 | 104 to 106 | COC(=O)c1ccc(CN([C@@H](CO)c2ccccc2)S(=O)(=O)c2ccc(Cl)cc2)cc1
51 | 120 to 122 | O=c1ccc2c(n1CCc1ccccc1)CCCC2NCCc1ccc(Cl)c(Cl)c1 (stereo not given)
52 | > 260 | COC(=O)c1ccc(C=CC(=O)N2CCc3c([nH]c4ccccc34)C2c2ccc3c(c2)CCO3)nc1 (stereo not given)
53 | 245 to 246 | CCCc1c(OCc2cc(C=CC(=O)O)ccc2OC)ccc(C(C)=O)c1O
54 | 87 to 89 | Clc1ccc(Oc2cncc3sccc23)cc1

The remaining lines, values behind:

Row | Compound | melting point [°C]
55 | O=c1[nH]c2c(Cl)cc(Cl)cc2c(=O)n1CCCN1CC=C(c2ccc(Cl)cc2)CC1 | 197 to 199
56 | COc1ccc(C=O)c(Cl)c1O | 204 to 206
57 | Fc1ccc2[nH]cc(C3=CCN(CC4COc5ccc6[nH]c(C(F)(F)F)nc6c5O4)CC3)c2c1 (stereo not given) | 236 to 238
58 | COc1cc(C#N)c(C(C)=O)cc1[N+](=O)[O-] | 224 to 226
59 | CCCCCCc1ccc(C=Nc2ccc(C#N)cc2)cc1 | 32.2 to 33
60 | O=S(CCCCNC(P(=O)(O)O)P(=O)(O)O)c1ccccn1 (stereo not given) | 235 to 240
61 | CCC(C)c1ccc(-n2c(-c3cc(C)c(OCCO)c(C)c3)nc3c(OC)cccc3c2=O)cc1 (stereo not given) | 158 to 159
62 | CCCCCCC(O)CNCCCCCCNCC(O)CCCCCC (stereo not given) | 124 to 127
63 | CCOC(=O)[C@@]1(F)[C@@H]2CC=C(C(=O)OCc3ccccc3)[C@@H]21 | 90 to 91
64 | CCCCCCCCCCC(O)C1CCC(C2CCC(C(O)CCCCCCCCCCC3CC(CC(C)=O)C(=O)O3)O2)O1 (stereo not given) | 90.5 to 90.7
65 | CCNC1CCc2[nH]c3ccc(OCc4ccccc4)cc3c2C1 (stereo not given) | 117 to 118
66 | CCCC(=O)O[C@H]1[C@H](OCc2ccccc2)[C@@H](OCc2ccccc2)[C@H](OCc2ccccc2)[C@@H](OCc2ccccc2)[C@]1(O)CCC (racemic) | 143
67 | CCOC(=O)Nn1cccc1C(=O)c1ccccc1 | 68 to 70
68 | COc1cc(C(=O)N2Cc3ccccc3Cc3ccccc32)ccc1NC(=O)C1(C)C=CC=CC1 (stereo not given) | 209 to 210
69 | CC(=O)N1CCC(CC(O)c2ccc(N(C)C)cc2)CC1 (stereo not given) | 119 to 120
70 | Cn1c(C=Cc2ccccc2)cnc1[N+](=O)[O-] | 170 to 180
71 | CCOC(=O)c1cn(-c2cc(N)c(F)cc2F)c2c(C)c(F)c(F)c(N)c2c1=O | 134 to 135
72 | CCCCCCCCCCCCC1(Cc2cc(N=Nc3ccc([N+](=O)[O-])cc3[N+](=O)[O-])ccc2O)COCCOCC(C)(C)COCCOC1 | 64 to 65
73 | CCc1cc(C(=O)C(c2ccc(O)cc2)c2ccc(O)cc2)cc(C(C)(c2ccc(O)cc2)c2ccc(O)cc2)c1 | 144 to 146
74 | CC(C)NC1CCCCC1O (stereo not given) | 54 to 55
75 | Ic1ccnc2c1CCCN2 | 117 to 118
76 | Oc1ccc(C2CCC(=CCC3OCCO3)CC2)cc1 (stereo not given) | 126
77 | Cc1cc(SC#N)c(C)c(C)c1O | 100

Row | Compound | melting point [°C]
78 | CCN1CCCC(NC(=O)Cn2c(-c3ccc(Br)cc3)nc3cccnc32)C1 (stereo not given) | 190 to 192
79 | CC(=O)NCCCc1ccc(Cl)c2c1CCO2 | 76 to 78
80 | O=C(O)c1ccc(OC(=O)c2ccc(O)c(C34CC5CC(CC(C5)C3)C4)c2)nc1 | 112 to 113
81 | CCOC(=O)c1cc(-c2nn3c(c2Cl)CCCC3)c(F)cc1Cl | 72 to 73
82 | CCCCNc1c(C(=O)OCC)c(C)nc2nccnc12 | 56 to 58
83 | CCOC(=O)C(C(=O)OCC)c1ccc(OCC2=NCCN2)cc1 | 72 to 110
84 | O=C1c2ccccc2C(=O)N1CC(=O)N1c2ccccc2N(Cc2ccc(O)cc2)C(=O)[C@H]2CCC[C@H]21 (relative stereo) | 264 to 267
85 | CC(C)c1cccc(C(C)C)c1NC(=O)CN1CN(c2ccccc2)C2(CCCCC2)C1=O | 251 to 253
86 | CNC(=NCCSCc1cnc(C)[nH]1)NC#N | 141 to 142
87 | CCc1cnc(N2CCN(c3nc(-c4ccccc4)nc4ccccc34)CC2)nc1 | 137 to 138
88 | CSC(=C[N+](=O)[O-])NCCSCc1ccccn1 | 95.5 to 96.5
89 | COc1cc2ncnc(N3CCN(C(=O)Nc4cccnc4)CC3)c2cc1OC | 208 to 209
90 | CCCCCCSc1c(O)cc(C)oc1=O | 69 to 70
91 | CCn1cc(C(=O)O)c(=O)c2ccc(N3CCN(c4ncccn4)CC3)c(OC(F)F)c21 | > 300
92 | CCCn1nc2c(N)nc3ncccc3c2c1CC(C)(C)C#N | 249 to 252
93 | CC(C)(C)OC(=O)NCCCCn1c(-c2ccccc2)nc2c(N)nc3ccccc3c21 | 182 to 183
94 | Cc1ccc2cc(-c3ccc4c(c3)C(C)(C)CCC4(C)C)ccc2c1 | 173 to 175
95 | CC(Oc1nn(-c2ccccc2)cc1-c1ccccc1)C(=O)O (stereo not given) | 175 to 178
96 | CC(SC1COC(c2ccc(C(=O)Nc3ccc(SC(F)(F)F)cc3)cc2)OC1)C(O)(Cn1cncn1)c1ccc(F)cc1F (stereo not given) | 95
97 | O=P(Cc1ccc(O)cc1)(c1ccccc1)c1ccccc1 | 125
98 | COc1ccc(-c2c(Cl)c(CNC3CC3)nc3sc4c(c23)CCN(Cc2ccccc2)C4)cc1OC | 131 to 132
99 | CN1CCP(=O)(c2ccccc2)CC1 | 115 to 116
100 | COc1cc(N)c(Cl)cc1C(=O)NCC1CCCN1C1CCCCC1 (stereo not given) | 123 to 124
